Here are results for 9 compounds from ChEMBL document CHEMBL1201862, “PubChem BioAssay data set” (2004).

Test systems include HOP-62; RPMI-8226; OVCAR-3; HT-29; SW-620; CAKI-1; SR; UACC-62; ACHN; CCRF-CEM; COLO 205; MDA-MB-231; NCI-H522; A498; Malme-3M; IGROV-1; HCC 2998; SN12C; T47D.
What all share (assay): growth of human tumour cells (NCI), 48 h

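In this assay, cells in 96-well plates receive the compound at five concentrations for 48 hours. Endpoints are linearly interpolated between the surrounding concentrations. GI50 = concentration required for 50% inhibition of growth.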 Activity calls are given as the source filed them. Rule as the data show it: active = GI50 up to about 1.1 µM and inactive = higher.

Take `N#C/C=C\c1ccc(-c2cc(C(F)(F)F)cc(C(F)(F)F)c2)o1`: the GI50 in the experiment on HOP-62 is 21.1 µM (inactive); with RPMI-8226 it was > 100 µM (inactive); in the experiment on OVCAR-3, > 100 µM (inactive); in the experiment on HT-29, 94.4 µM (inactive); in the experiment with SW-620, 49.7 µM (inactive); in the experiment with CAKI-1, 35.3 µM (inactive). For the same compound, the GI50 with SR is 19.3 µM (inactive); in the experiment on UACC-62, 23.3 µM (inactive); in the experiment on ACHN, > 100 µM (inactive); with CCRF-CEM it was 47 µM (inactive); in the experiment with COLO 205 it was > 100 µM (inactive); with MDA-MB-231, 36.8 µM (inactive). Also, the GI50 was 48 µM (inactive) in the experiment with NCI-H522; 26.5 µM (inactive) in the experiment on A498; 64.4 µM (inactive) with Malme-3M; 47.2 µM (inactive) with IGROV-1; 21.6 µM (inactive) in the experiment with HCC 2998; 35.6 µM (inactive) with SN12C.

Turning to `COc1ccccc1C(C1=C(O)COC1=O)c1cc2c(cc1OC(C)=O)OCO2` (stereo unspecified), the GI50 in the experiment with HOP-62, in the experiment on RPMI-8226, with OVCAR-3, in the experiment with HT-29, in the experiment on SW-620 and in the experiment on CAKI-1 was > 100 µM (inactive) throughout. Moreover, the GI50 with SR, in the experiment with UACC-62, in the experiment on ACHN, in the experiment with CCRF-CEM, in the experiment with COLO 205 and in the experiment with MDA-MB-231 was > 100 µM (inactive) throughout. Further, the GI50 in the experiment on A498, in the experiment with Malme-3M, in the experiment on IGROV-1, with HCC 2998 and with SN12C was > 100 µM (inactive) in each case.

Regarding `COC1C(O)C(C)OC(O[C@H]2CC[C@@]3(C)C(CC[C@@H]4[C@@H]3CC[C@]3(C)[C@@H](C(C)OC5OC(CO)C(O)C(O)C5O)CC[C@]43O)C2)C1O` (stereo partly specified), the GI50 in the experiment with HOP-62, in the experiment with RPMI-8226, in the experiment on OVCAR-3, with HT-29, in the experiment on SW-620 and in the experiment with CAKI-1 was > 25 µM (inactive) throughout. The GI50 in the experiment with SR, with UACC-62, with ACHN, in the experiment with CCRF-CEM, in the experiment on MDA-MB-231 and in the experiment with NCI-H522 was > 25 µM (inactive) each time. Moreover, the GI50 in the experiment on A498, in the experiment on IGROV-1, in the experiment on HCC 2998 and with SN12C was > 25 µM (inactive) in each case.

In the case of `Cn1c(=N)n[n+]([O-])c2ccccc21`, the GI50 in the experiment on HOP-62 is 2.45 µM (inactive); in the experiment on OVCAR-3, 0.895 µM (active); with HT-29, 1.68 µM (inactive); with SW-620, 2.12 µM (inactive); with CAKI-1, 2.49 µM (inactive); in the experiment with UACC-62 it was 1.09 µM (active). The GI50 in the experiment on ACHN was 4.9 µM (inactive); in the experiment on CCRF-CEM, 3.01 µM (inactive); in the experiment with COLO 205 it was 2.34 µM (inactive); in the experiment on MDA-MB-231 it was 9.42 µM (inactive); in the experiment on NCI-H522, 3.72 µM (inactive); with IGROV-1 it was 3.59 µM (inactive). For the same compound, the GI50 in the experiment with SN12C is 1.84 µM (inactive).

For the compound `N#Cc1ccccc1C#C/C=C\C#Cc1ccccn1`, the GI50 is 19 µM (inactive) in the experiment with HOP-62; 20.8 µM (inactive) with T47D; 4.27 µM (inactive) with OVCAR-3; 18 µM (inactive) with HT-29; 12.6 µM (inactive) with SW-620; 21.8 µM (inactive) in the experiment on CAKI-1. For the same compound, the GI50 was 4.12 µM (inactive) with SR; 15.3 µM (inactive) with UACC-62; 29.6 µM (inactive) in the experiment with ACHN; 36.5 µM (inactive) in the experiment with CCRF-CEM; 27.4 µM (inactive) with COLO 205; 19.3 µM (inactive) in the experiment on Malme-3M. For the same compound, the figures for the GI50 with IGROV-1, with HCC 2998 and in the experiment with SN12C were 17 µM (inactive), 14.5 µM (inactive) and 20.4 µM (inactive), respectively.

Turning to `O=C(Nc1nc(C23CC4CC(CC(C4)C2)C3)cs1)c1cc2cc(Cl)ccc2oc1=O`, the GI50 in the experiment on HOP-62, with RPMI-8226, with OVCAR-3, in the experiment on HT-29, in the experiment with SW-620 and in the experiment with CAKI-1 was > 100 µM (inactive) each time. In addition, the GI50 with SR, in the experiment on ACHN, in the experiment with CCRF-CEM, in the experiment on COLO 205, in the experiment on MDA-MB-231 and with NCI-H522 was > 100 µM (inactive) throughout. The GI50 in the experiment on A498, with Malme-3M, with IGROV-1, with HCC 2998 and with SN12C was > 100 µM (inactive) each time.

Take `COc1ccc(/C(=C/n2ccnc2)C(O)c2ccc(OC)c(OC)c2)cc1OC` (stereo unspecified): the GI50 with HOP-62 was > 100 µM (inactive); in the experiment with RPMI-8226, 70.6 µM (inactive); in the experiment with OVCAR-3, > 100 µM (inactive); in the experiment with HT-29, > 100 µM (inactive); with SW-620, > 100 µM (inactive); in the experiment with SR, 12.3 µM (inactive). Besides, the GI50 in the experiment with CCRF-CEM is 26.7 µM (inactive); in the experiment on COLO 205 it was > 100 µM (inactive); in the experiment on A498, 68.9 µM (inactive); in the experiment with IGROV-1, > 100 µM (inactive); with SN12C, > 100 µM (inactive).

`COC(=O)[C@]1(c2cc3ccccc3[nH]2)CC2CN(C(=O)OCc3ccccc3)C1C=C2OC` (stereo partly specified): the GI50 with HOP-62 was 31 µM (inactive); in the experiment with T47D, 35.8 µM (inactive); with RPMI-8226, 26.5 µM (inactive); in the experiment with OVCAR-3, 24 µM (inactive); in the experiment on HT-29, 25.7 µM (inactive); in the experiment on SW-620, 41.5 µM (inactive). The GI50 in the experiment with CAKI-1 was 28.5 µM (inactive); in the experiment with UACC-62, 16.8 µM (inactive); in the experiment with ACHN it was 25.8 µM (inactive); with CCRF-CEM it was 24.8 µM (inactive); in the experiment with COLO 205, 19 µM (inactive); with MDA-MB-231 it was 19.9 µM (inactive). Moreover, the GI50 is 27.2 µM (inactive) with NCI-H522; 28.9 µM (inactive) in the experiment on Malme-3M; 42.7 µM (inactive) with IGROV-1; 21.5 µM (inactive) with HCC 2998; 36.1 µM (inactive) in the experiment with SN12C.

In the case of `CN(C)S(=O)(=O)Nc1ccccn1`, the GI50 with HOP-62, in the experiment on RPMI-8226, in the experiment on OVCAR-3, in the experiment on HT-29, in the experiment on SW-620 and with CAKI-1 was > 100 µM (inactive) throughout. Also, the GI50 in the experiment on SR, in the experiment with UACC-62, in the experiment on ACHN, with COLO 205, in the experiment on MDA-MB-231 and in the experiment with NCI-H522 was > 100 µM (inactive) each time. Besides, the GI50 in the experiment on A498, in the experiment with Malme-3M, in the experiment on IGROV-1, in the experiment with HCC 2998 and with SN12C was > 100 µM (inactive) in each case.
